Among the data in patent US5034391A, “Piperazinylalkyl-3(2H)-pyridazinones and the use thereof as agents lowering blood pressure” (CL Pharma Aktiengesellschaft, priority 1988, dated 1991) are Ki values, retold here.

Where “and” joins values, the source holds several entries; their conditions need not be identical. Equal entries are not always repeated.

The assay deals with T1, alpha1 adrenoceptors (Rattus norvegicus, UniProt P15823).
T1 construct: from tissue; host or cells: rat cardiac membranes
T1 sequence (P15823 1-515): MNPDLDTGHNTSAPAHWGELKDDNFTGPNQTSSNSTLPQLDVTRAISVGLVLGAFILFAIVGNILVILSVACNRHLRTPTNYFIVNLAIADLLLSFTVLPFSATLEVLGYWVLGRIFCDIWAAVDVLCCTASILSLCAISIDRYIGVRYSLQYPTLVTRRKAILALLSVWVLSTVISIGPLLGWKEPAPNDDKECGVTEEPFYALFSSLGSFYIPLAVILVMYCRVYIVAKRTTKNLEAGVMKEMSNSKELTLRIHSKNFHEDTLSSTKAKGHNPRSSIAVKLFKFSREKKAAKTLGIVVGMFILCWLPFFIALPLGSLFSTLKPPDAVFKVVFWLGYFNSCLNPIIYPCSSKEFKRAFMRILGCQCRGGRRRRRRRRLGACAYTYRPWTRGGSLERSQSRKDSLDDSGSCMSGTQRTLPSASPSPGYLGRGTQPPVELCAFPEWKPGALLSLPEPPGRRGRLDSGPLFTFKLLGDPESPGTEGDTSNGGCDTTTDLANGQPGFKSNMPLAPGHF
Nature of the assay: Affinity for alpha1 adrenoceptors: displacement of tritiated prazosin on rat cardiac membranes. The format is binding. To be noted: Ki from IC50 by Cheng and Prusoff, read-out: Inhibition constants at alpha-1-adrenoceptor (Ki). As for the experimental part: The affinity of compounds of the general formula I for alpha1 adrenoceptors was established using the method described by R. S. Williams, D. F. Dukes and […] in J. Cardiovasc. Pharmacol. 3, 522-531 (1981). In this method the competitive displacement of tritiated prazosin (2-(4-(2-furoyl)-1-piperazinyl)-4-amino-6,7-dimethoxy-quinazoline) on rat-cardiac membranes by the test substances is measured, and the IC50 (50% inhibition concentration) is determined as that concentration which brings about a 50% inhibition of the specific binding of tritiated prazosin to the alpha1 adrenoceptors in rat cardiac membranes.
The concentration-independent inhibitor constants K1 -alpha1 were determined from the IC50 values as stated by Y. Cheng and H. W.Prusoff in Biochem. Pharmacol. 22, 3099-3108 (1973).
For the compound “2-Methyl-4-((2-(4-(2-fluorophenyl)piperazinyl-1)ethyl) amino)-3(2H)-pyridazinone”, the inhibitory constant (Ki) worked out at 89.4 nM.
In the case of `CCOc1cc(C)ccc1N1CCN(CCCNc2cnn(C)c(=O)c2)CC1` [1-Methyl-5-((3-(4-(2-ethoxy-4-methylphenyl)piperazinyl-1)propyl)amino)-3(2H)-pyridazinone] it was 23.3 nM.
The figure for `COc1ccccc1N1CCN(CCNc2ccnn(CCN(C)C)c2=O)CC1` [2-(2-Dimethylaminoethyl)-4-((2-(4-(2-methoxyphenyl)piperazinyl-1)ethyl)amino)-3(2H)-pyridazinone] is 437 nM; for `COc1ccccc1N1CCN(CCNc2cnn(CCN(C)C)c(=O)c2)CC1` [2-(2-Dimethylaminoethyl)-5-((2-(4-(2-methoxyphenyl)piperazinyl-1)ethyl)amino)-3(2H)-pyridazinone] it is 229 nM.
Turning to `COc1ccccc1N1CCN(CCNc2c(Cl)cnn(CCN(C)C)c2=O)CC1` [2-(2-Dimethylaminoethyl)-5-chloro-4-((2-(4-(2-methoxyphenyl)piperazinyl-1)ethyl)amino)-3(2H)-pyridazinone], the Ki was found to be 15.8 nM.
The figure for `CCOc1ccccc1N1CCN(CCNc2ccnn(C)c2=O)CC1` [2-Methyl-4-((2-(4-(2-ethoxyphenyl)piperazinyl-1)ethyl)amino)-3(2H)-pyridazinone] is 13.6 nM; for `Cn1nccc(NCCN2CCN(c3ccccc3F)CC2)c1=O` [2-Methyl-4-((2-(4-(2-fluorophenyl)piperazinyl-1)ethyl)amino) -3(2H)-pyridazinone] it is 21.4 nM.
With `COc1ccccc1N1CCN(CCNc2ccnn(C)c2=O)CC1` [2-Methyl-4-((2-(4-(2-methoxyphenyl)piperazinyl-1)ethyl)amino)-3(2H)-pyridazinone], the Ki stood at 15.7 nM.
Consider `CCOc1cc(C)ccc1N1CCN(CCCNc2ccnn(C)c2=O)CC1` [2-Methyl-4-((3-(4-(2-ethoxy-4-methylphenyl)piperazinyl-1)propyl)amino)-3(2H)-pyridazinone], for which the Ki came to 13.6 nM.
With `Cn1nccc(NCCCN2CCN(c3ccccc3F)CC2)c1=O` [2-Methyl-4-((3-(4-(2-fluorophenyl)piperazinyl-1)propyl)amino)-3(2H)-pyridazinone], the Ki was 30.2 nM.
For `Cc1ccc(N2CCN(CCCNc3ccnn(C)c3=O)CC2)c(O)c1` [2-Methyl-4-((3-(4-(2-hydroxy-4-methylphenyl)piperazinyl-1)propyl)amino)-3(2H)-pyridazinone], the inhibitory constant (Ki) amounted to 20.9 nM.
For `COc1ccccc1N1CCN(CCCNc2ccnn(C)c2=O)CC1` [2-Methyl-4-((3-(4-(2-methoxyphenyl)piperazinyl-1)propyl)amino-3(2H)-pyridazinone], the Ki is 24.7 nM and 40.5 nM.
As to `Cc1ccccc1N1CCN(CCCNc2cnn(C)c(=O)c2)CC1` [2-Methyl-4-((3-(4-(2-methylphenyl)piperazinyl-1)propyl)amino)-3(2H)-pyridazinone], the inhibition constant Ki turned out to be 49.3 nM.
For `COc1ccccc1N1CCN(CCCCNc2ccnn(C)c2=O)CC1` [2-Methyl-4-((4-(4-(2-methoxyphenyl)piperazinyl-1)butyl)amino)-3(2H)-pyridazinone], the Ki was 11.8 nM.
The figure for `Cn1ncc(NCCN2CCN(c3ccccc3OCc3ccccc3)CC2)c(Cl)c1=O` [2-Methyl-4-chloro-5-((2-(4-(2-benzyloxyphenyl)piperazinyl-1)ethyl)amino)-3(2H)-pyridazinone] is 2 nM; for `Cn1ncc(NCCN2CCN(c3ccccc3O)CC2)c(Cl)c1=O` [2-Methyl-4-chloro-5-((2-(4-(2-hydroxyphenyl)piperazinyl-1)ethyl)amino)-3(2H)-pyridazinone] it is 15.4 nM; for `Cc1ccccc1N1CCN(CCNc2cnn(C)c(=O)c2Cl)CC1` [2-Methyl-4-chloro-5-((2-(4-(2-methylphenyl)piperazinyl-1)ethyl)amino)-3(2H)-pyridazinone] it is 6.27 nM.
For `CCOc1cc(C)ccc1N1CCN(CCCNc2cnn(C)c(=O)c2Cl)CC1` [2-Methyl-4-chloro-5-((3-(4-(2-ethoxy-4-methylphenyl)piperazinyl-1)propyl)yamino)-3(2H)-pyridazinone], the inhibition constant Ki was determined as 3.78 nM.
In the case of `Cn1ncc(NCCCN2CCN(c3ccccc3F)CC2)c(Cl)c1=O` [2-Methyl-4-chloro-5-((3-(4-(2-fluorophenyl)piperazinyl-1)propyl)amino)-3(2H)-pyridazinone] it was 32.8 nM.
For `Cc1ccc(N2CCN(CCCNc3cnn(C)c(=O)c3Cl)CC2)c(O)c1` [2-Methyl-4-chloro-5-((3-(4-(2-hydroxy-4-methylphenyl)piperazinyl-1)propyl)amino)-3(2H)-pyridazinone], the Ki worked out at 4.33 nM.
For `Cc1ccccc1N1CCN(CCCNc2cnn(C)c(=O)c2Cl)CC1` [2-Methyl-4-chloro-5-((3-(4-(2-methylphenyl)piperazinyl-1)propyl)amino)-3(2H)-pyridazinone], the inhibitory constant (Ki) is 31.4 nM.
Turning to `Cc1ccc(N2CCN(CCNc3cnn(C)c(=O)c3Cl)CC2)c(O)c1` [2-Methyl-4-chloro-5-((4-(2-hydroxy-4-methylphenyl)piperazinyl-1)ethyl)amino)-3(2H)-pyridazinone], the inhibition constant (Ki) was found to be 20.8 nM.
In the case of `COc1ccccc1N1CCN(CCCCNc2cnn(C)c(=O)c2Cl)CC1` [2-Methyl-4-chloro-5-((4-(4-(2-methoxyphenyl)-1-piperazinyl)butyl)amino)-3(2H)-pyridazinone] it was 6.05 nM; in that of `CCN(CCN1CCN(c2ccccc2OC)CC1)c1cnn(C)c(=O)c1Cl` [2-Methyl-4-chloro-5-(ethyl-(2-(4-(2-methoxyphenyl)piperazinyl-1)ethyl)amino)-3(2H)-pyridazinone], 37.1 nM; in that of `COc1ccccc1N1CCN(CCCN(C)c2cnn(C)c(=O)c2Cl)CC1` [2-Methyl-4-chloro-5-(methyl-(3-(4-(2-methoxyphenyl)piperazinyl-1)propyl)amino)-3(2H)-pyridazinone], 3.55 nM.
With `CCOc1ccccc1N1CCN(CCNc2cnn(C)c(=O)c2)CC1` [2-Methyl-5-((2-(4-(2-ethoxyphenyl)piperazinyl-1)ethyl)amino)-3(2H)-pyridazinone], the Ki was 103 nM.
`Cn1ncc(NCCN2CCN(c3ccccc3O)CC2)cc1=O` [2-Methyl-5-((2-(4-(2-hydroxyphenyl)piperazinyl-1)ethyl)amino)-3(2H)-pyridazinone]: the inhibitory constant (Ki) was 65.8 nM.
On to `COc1ccccc1N1CCN(CCCCNc2cnn(C)c(=O)c2)CC1` [2-Methyl-5-((4-(4-(2-methoxyphenyl)piperazinyl-1)butyl)amino)-3(2H)-pyridazinone], for which the Ki came out at 5.38 nM.
In the case of `Cn1ncc(Cl)c(NCCN2CCN(c3ccccc3OCc3ccccc3)CC2)c1=O` [2-Methyl-5-chloro-4-((2-(4-(2-benzyloxyphenyl)piperazinyl-1)ethyl)amino)-3(2H)-pyridazinone] it was 2.54 nM; in that of `Cc1ccccc1N1CCN(CCNc2c(Cl)cnn(C)c2=O)CC1` [2-Methyl-5-chloro-4-((2-(4-(2-methylphenyl)piperazinyl-1)ethyl)amino)-3(2H)-pyridazinone], 1.21 nM.
On to `CCOc1cc(C)ccc1N1CCN(CCCNc2c(Cl)cnn(C)c2=O)CC1` [2-Methyl-5-chloro-4-((3-(4-(2-ethoxy-4-methylphenyl)piperazinyl-1)propyl)amino)-3(2H)-pyridazinone], for which the Ki was found to be 4.99 nM.

In general, Ki refers to the dissociation constant of the complex between target and ligand, obtained from inhibition or displacement.
